Entries after “also recorded” stand apart in the source; their conditions may differ.
What was measured:
PMNLs = assay: Neutrophil adhesion to fibrinogen-coated plates; format: cell-based, human; details: 1 µM ODN +/- 1 µM LRR11, 20 min, 37 °C, n = 3, Figure S2a
Experimental: Figure S2a. Effects of ODNs and LRR11 peptide on neutrophil adhesiveness. PMNLs (10^6 cells/probe in HBSS/HEPES) supplemented with 1 µM ODN +/- 1 µM LRR11, except for control samples containing HBSS/HEPES instead of ODNs, were incubated in fibrinogen-coated 24-well plates for 20 min at 37 °C in 5 % CO2. The supernatants were then carefully removed, and wells were washed twice with warm PBS to remove unattached cells. Adhesion quantitative assessment was carried out as described in [59]. Briefly, hydrogen peroxide (4 mM final concentration) in permeabilizing buffer (67 mM Na2HPO4, 35 mM citric acid, 0.1% Triton X-100) supplemented with 5.5 mM ortho-phenylenediamine was added to the attached PMNLs for 5 min. The reaction was stopped by adding of 1M H2SO4, followed by recording the absorption values at 492 nm and comparing them with the calibration values. Data are means ± SEM of attached cells amounts, as the percentages of PMNLs initially contained in the samples (n=3; *p < 0.05; **p < 0.01 in comparison with corresponding controls, as indicated by two-way ANOVA followed by Dunnett’s multiple comparison test). […]

[1] = system: human neutrophils, 5-LOX metabolites; assay: 5-LOX metabolite production in neutrophils without bacteria or other phagocytosis targets; format: cell-based; details: in the absence of bacteria or other targets for phagocytosis
Experimental: Human neutrophils synthesize 5-LOX metabolites (leukotriene B4 (LTB4) and its isomers, ω-OH-LTB4 and 5-HETE), during phagocytosis of opsonized zymosan or S. typhimurium bacteria. In the absence of bacteria or other targets for phagocytosis, treatment of neutrophils with ODNs listed in Table 1 or with LRR11, produce less than 1 ng of LTB4, its isomers, ω-OH-LTB4, and 5-HETE per 10^7 PMNLs. The potential of the LRR11 peptide and ODNs to regulate the synthesis of products catalyzed by 5-LOX was assessed after cell incubation with ODNs (+/−LRR11) followed by the addition of opsonized S. typhimurium bacteria (OS). To test whether neutrophil incubation with ODNs, LRR11 and bacteria affects cell viability, we assessed phosphatidylserine externalization and the integrity of neutrophil membranes after 20 min with ODNs (+/−LRR11) followed by 15 min with OS at 37 °C. The data obtained by flow cytometry using double Alexa Fluor-conjugated Annexin V/propidium iodide staining indicate that in our experiment the percentage of viable cells exceeds 96% (Figure S1).
Human neutrophils were isolated from freshly taken citrate-anticoagulated peripheral blood from healthy individuals using standard methods. Leukocyte-rich plasma was prepared by sedimentation of erythrocytes with 3% dextran T-500 at room temperature. […]

human neutrophils = assay: Reactive oxygen species formation (H2DCF-DA); format: cell-based; details: n = 3, Figure 8
Experimental: Figure 8 When added simultaneously, LRR11 potentiates the prooxidant effects of oligonucleotides. H2DCF-DA-stained PMNLs (1 × 10^6/mL) were cultured for 1 h at 37 °C in 5% CO2 without additives or in the presence of 1 µM ODN, supplemented (shaded) or not (solid fill) with 1 µM LRR11. DCF green fluorescence signals (ex. 485 nm, em. 538 nm) were monitored every 5 min for an hour. Values represent the means ± SEM of DCF fluorescence intensity increments (RFU) in 30 min after stimulus addition (n = 3). * p < 0.05 for the pairs of data specified, as indicated by two-way ANOVA followed by Tukey’s multiple comparison test.
The level of intracellular production of reactive oxygen species was monitored by measuring the green fluorescence of H2DCF-DA-labeled oxidized product incorporated into cells according to the manufacturer’s protocol. Briefly, human neutrophils were incubated with 5 μM carboxy-H2DCF-DA (Molecular Probe, Eugene, OR, USA) for 60 min at room temperature, followed by rinsing with PBS. […] Fluorescent cell staining (excitation at 485 nm and emission at 538 nm) was recorded at CLARIOstar fluorescence microplate reader, using MARS Data Analysis Software, version 3.30 (both hardware and software are from BMG Labtech, Ortenberg, Germany).

Sequence: QLRKLNLSFNYQKRVSFAHLSLAPSFGSLV [LRR11, 30 amino acid peptide from leucine-rich repeat of TLR9]
- effect on PMNL adhesion (PMNLs): LRR11 did not affect this
- LTB4, its isomers, ω-OH-LTB4, and 5-HETE produced [1]: less than 1 ng per 10^7 PMNLs
- effect of LRR11 on prooxidant potential of ODNs (human neutrophils; 1 µM LRR11 + 1 µM ODN, 30 min): Notably enhancing the prooxidant potential of the studied ODNs, in particular, CpG-containing ones; also recorded: only CpG-ODNs in combination with LRR11 enhanced responses
- effect of LRR11 alone on synthesis of reactive oxygen species (human neutrophils; 1 µM LRR11, 37 °C): does not affect the synthesis of reactive oxygen species

Source: publication PMC7961786, “Magic Peptide: Unique Properties of the LRR11 Peptide in the Activation of Leukotriene Synthesis in Human Neutrophils” (International Journal of Molecular Sciences, 2021)
